The values below come from US10231979B2, “Modulation of inflammation using progesterone metabolites” (Indiana University Research and Technology Corporation, priority 2015, dated 2019).

For data set [1], the system named is uterine horns from wild-type (WT) C57BL/6J female mice. The experiment in a line: Spontaneous uterine contractility, isolated uterine horns in tissue organ bath. Particulars: for Contractile Frequency/10 min (% of baseline), Drug / Contractile Force (% of baseline), Drug: spontaneous contractility; for Contractile Force (% of baseline), Drug: AUC as % of baseline AUC; for IC50: spontaneous, dose-response 10^-9 to 10^-6 mol/L. The method, then: (§1) FIGS. 2A & 2B are representative contraction tracings of uterine horns from wild-type (WT) C57BL/6J female mice. FIG. 2A: Uterine horns were isolated and suspended in a tissue organ bath at 0.5 g of tension. Once equilibrated, selected progestin treatments were added in successively increasing concentrations from 10^−9 to 10^−6 mol/L in 20-minute intervals to assess effect on spontaneous contractile activity (progesterone treatment, bottom panel). The contralateral horn from each mouse was treated with a matching ethanol vehicle (top panel). All contraction responses were measured and reported as the area under the contraction curve (AUC), normalized to the AUC of the spontaneous contraction pattern that preceded treatment. FIG. 2B: Treatment effect on oxytocin-induced contractility was assessed by exposing horns to selected progestin treatments (10^−6 mol/L), followed by increasing doses of oxytocin (Oxt) (1, 10, 50, and 100 nmol/L) in 10-minute intervals (bottom panel). The contralateral horn from each mouse was treated with a matching ethanol vehicle (top panel). Contraction responses were measured and reported as described above.
(§2) All progestins were solubilized in ethanol and then diluted in phosphate-buffered saline to the desired molar concentration. […] The concentration of ethanol decreased parallel to the progestin dose in order to minimize the effect of the solvent on uterine contractility.
(§3) Virgin nonpregnant wild-type C57BL/6J female mice (Jackson Labs, Bar Harbor, Me.) were obtained at 10 to 12 weeks of age and fed a standard diet. Mice were euthanized by an IACUC-approved protocol, and each of the 2 uterine horns were removed. A 1 cm×0.5 cm segment of the uterine horn was suspended using 4-0 silk suture between a stainless steel wire hook connected to a Radnoti force displacement transducer (Radnoti LLC, Monrovia, Calif.) and a glass hook inside an organ bath that served as an anchor. The bath was filled with modified Krebs buffer (118 mmol/L NaCl, […], 1.2 mmol/L MgSO4, 1.2 mmol/L KH2PO4, 2.5 mmol/L CaCl2, 25 mmol/L NaHCO3, and 11 mmol/L glucose, pH 7.4), maintained at 37° C., and constantly bubbled with a premixed gas consisting of 20% O2, 5% CO2, and balance N2. Uterine horns were equilibrated at 0.5 g of tension for approximately 30 minutes until a spontaneous contraction pattern was established.
A total of 60 mice were utilized to assess the effect of the selected treatments on uterine contractility, 30 in the spontaneous contraction group and 30 in the oxytocin-induced group. Six mice were in each progestin treatment group during both spontaneous and oxytocin-induced contractility arms of the study. To determine the nongenomic (acute) effect of the progestin treatments on spontaneous uterine contractility, a segment of uterine horn from each mouse was exposed to a single progestin (progesterone, 17-OHPC, 2α-OHP, 6β-OHP, or 16αOHP), while a segment of the contralateral horn was exposed to a matching dose of ethanol vehicle. After a spontaneous contraction pattern was achieved, the progestin treatment was added to the tissue organ bath in successively increasing concentrations from 10^−9 to 10^−6 mol/L in 20-minute intervals. At the end of the treatments, the tissue was washed in modified Krebs buffer and then exposed to KCl (60 mmol/L) to elicit a tetanic response and confirm tissue viability.
Uterine contraction responses were recorded using LabChart Pro (ADInstruments, Colorado Springs, Colo.) software as the force generated with time (g×min). Baseline uterine contractility was calculated as the area under the curve (AUC) for a 10-minute period of spontaneous contractions. The AUC of the uterine contractile response to each treatment (progestin or oxytocin) was determined and expressed as a percentage of the baseline AUC observed during spontaneous contraction. […]

For a further data set, the system named is THP-1 monocyte cells. The experiment in a line: Flow cytometry of monocyte-derived macrophage population (PMA differentiation). Format: cell-based. Particulars: THP-1 pre-treated 24 hours, then PMA. The method, then:
FIGS. 6A-6C depict flow cytometry of a monocyte-derived macrophage population pre-treated with progesterone metabolites. THP-1 monocyte cells were pre-treated with progesterone metabolites 16αOHP and 6β-OHP for 24 hours, then stimulated to differentiate to macrophages by exposure to PMA.
THP-1 monocyte cells were pre-treated with progesterone metabolites 16αOHP and 6β-OHP for 24 hours, then stimulated to differentiate to macrophages by exposure to phorbol 12-myristate 13-acetate (PMA).
(In general: Flow cytometry measures light scatter and fluorescence of single cells or particles in a stream.)

For data set [2], the system named is primary uterine smooth muscle cells (UtSMC). Nature of the data set: IL-6 production in UtSMC stimulated with LPS. Format: cell-based. Particulars: UtSMC pre-treated, then LPS; for IL-6: LPS positive control 121.7 pg/mL; for IL-6, % of positive control: relative to DMSO+LPS positive control. The method, then: In this Example, the effect of progesterone metabolites 16αOHP and 6β-OHP on inflammation in primary uterine smooth muscle cells (UtSMC) was analyzed.
UtSMC were cultured in the presence of DMSO and one of the following: (1) progesterone; (2) […]; (3) 6β-OHP; and (4) 16αOHP. Lipopolysaccharide (LPS) was then added to the culture to stimulate an immune inflammatory reaction. Experiments were performed in triplicate.

For data set [3], the system named is uterine horns from wild-type (WT) C57BL/6J female mice. Nature of the data set: Oxytocin-induced uterine contractility after progestin pretreatment, isolated uterine horns in tissue organ bath. Particulars: for EC50: oxytocin-induced dose-response (1-100 nmol/L oxytocin) after progestin pretreatment 10^-6 mol/L; for Contractile Force (% of baseline), Drug / Contractile Frequency/10 min (% of baseline), Drug: oxytocin-induced, progestin pretreatment 10^-6 mol/L. As for the experimental part:
as §1, §2, §3
To determine the nongenomic effect of progestin treatments on oxytocin-induced uterine contractility, the uterine horns were pretreated with a single progestin at 10^−6 mol/L for 10 minutes after a spontaneous contractile pattern was established. The contralateral horn from the same mouse was treated with ethanol vehicle at a matching concentration. The uterine horns were subsequently exposed to increasing concentrations of oxytocin (1, 10, 50, and 100 nmol/L) in 10-minute intervals. At the end of the oxytocin treatments, the tissue was washed and then exposed to KCl (60 mmol/L) to elicit a tetanic response and confirm tissue viability.
Uterine contraction responses were recorded using LabChart Pro (ADInstruments, Colorado Springs, Colo.) software as the force generated with time (g×min). Baseline uterine contractility was calculated as the area under the curve (AUC) for a 10-minute period of spontaneous contractions. The AUC of the uterine contractile response to each treatment (progestin or oxytocin) was determined and expressed as a percentage of the baseline AUC observed during spontaneous contraction. […] To account for repeated measurements for individual muscle strips at increasing treatment doses, a repeated measures 2-way analysis of variance model was used to compare the dose-response curves. Each dose-response curve was fit by nonlinear regression and compared using an extra sum of squares F test. The mean max-fit response was compared between each progestin and vehicle control to determine maximum treatment efficacy. […]

The subject of data set [4] is CYP3A.
Data set [5] deals with primary uterine smooth muscle cells (UtSMC). Nature of the data set: IL-6 production in UtSMC stimulated with TNF-α. Format: cell-based. From the text: FIGS. 5A & 5B are graphs depicting the effect of progesterone metabolites 16αOHP and 6β-OHP on inflammation in primary uterine smooth muscle cells (UtSMC).
For a further data set, the system named is THP-1 monocytes. The experiment in a line: IL-6 production in THP-1 monocytes stimulated with LPS. Particulars: THP-1 monocytes pretreated, then LPS; versus positive control. Format: cell-based. The method, then:
FIG. 9 is a graph depicting the effect of progesterone and progesterone metabolites (16αOHP and 6β-OHP) on inflammation in THP-1 monocytes stimulated with LPS.
In this Example, the effect of progesterone and progesterone metabolites (16αOHP and 6β-OHP) on inflammation in THP-1 monocytes stimulated with LPS was analyzed.

Data set [6] deals with monocyte-derived macrophage populations. The experiment in a line: Macrophage cell surface marker expression of monocyte-derived macrophages. Format: cell-based. Particulars: relative to DMSO treated control. From the text: FIG. 7 is a graph depicting characterization of monocyte-derived macrophage populations after pre-treatment with progesterone and progesterone metabolites. Expression of macrophage cell surface markers is illustrated relative to DMSO treated control.
In this Example, monocyte-derived macrophage populations after pre-treatment with progesterone and progesterone metabolites were characterized.
Expression of macrophage cell surface markers is illustrated relative to DMSO treated control (see FIG. 7).

The next data set deals with NF-κB pathway. The experiment in a line: NF-κB pathway activation in THP-1 monocytes stimulated with LPS (imaging flow cytometry). Format: cell-based. Particulars: THP-1 monocytes pre-treated, then LPS.
The subject of data set [7] is CYP3A. The experiment in a line: CYP3A production of 16α-OHP and 6β-OHP in human liver microsomes (HLMs). Particulars: p<0.01. (In general: Liver microsomes are a subcellular fraction often used to study metabolism.)
Setting [8] is: maximal oxytocin dose (100 nmol/L).
The mark [9] stands for this setting: maximal oxytocin dose (100 nmol/L), listed as progesterone.

Where two headings read alike, the source gives them in different places.

As a reminder, the IC50 is the concentration needed to halve the response being measured. As usually defined, the EC50 is the concentration giving half of the maximal effect. On to `CC(=O)[C@H]1CC[C@H]2[C@@H]3C[C@@H](O)C4=CC(=O)CC[C@]4(C)[C@H]3CC[C@]12C` [6β-OHP, 4-pregnen-6β-ol-3,20-dione], for which, in data set [1] (maximal treatment dose), the “Spontaneous contractile force compared with the vehicle control (in words)” value is “No significant difference”; the “Spontaneous uterine contraction frequency compared to vehicle control (in words)” value is “not significantly decreased”; the “Contractile Frequency/10 min (% of baseline), Drug” value is 46.2% of baseline; the “Contractile Force (% of baseline), Drug” value is listed as 45% of baseline. For the same compound, the IC50 in data set [1] (read-out: Contractile Force IC50) stood at 0.48 nM. In data set [1] (read-out: Contractile Frequency IC50), the IC50 came to 4.1 nM. In addition, the “Macrophage population/phenotype compared to DMSO treated control (in words)” value in the data set on THP-1 monocyte cells is “decrease in the macrophage population/phenotype”. Also, the “Macrophages, % of the total population” value in the data set with THP-1 monocyte cells (DMSO control 77%) amounted to 52%. In data set [2], the IL-6 amounted to 125.4 pg/mL and the “IL-6, % of positive control” value came to 102%. For the same compound, the “Effect on oxytocin-induced uterine contractility (in words)” value in data set [3] is reported as “increase”. Also, in [3] (setting [8]), the “Oxytocin-induced contractile force compared to vehicle control (in words)” value is on record as “no differences”; the “Oxytocin-induced contraction frequency compared to control (in words)” value is given as “decreased significantly”; the “Contractile Force (% of baseline), Drug” value was 267.6% of baseline; the “Contractile Frequency/10 min (% of baseline), Drug” value was 196.1% of baseline. Besides, the EC50 in data set [3] (read-out: Contractile Force EC50) was 20.9 nM. Also, in data set [3] (read-out: Contractile Frequency EC50), the concentration for a half-maximal effect (EC50) came to 12.8 nM. The “Contractile Frequency/10 min (% of baseline), Drug” value in data set [3] (maximal oxytocin dose (100 nmol/L), listed as 6β-hydroxyprogesterone) is reported as 196 % of baseline. Further, the “Production of metabolite in human liver microsomes (in words)” value with CYP3A [4] was “favored”. Also, the “IL-6 production (in words)” value in [5] is given as “decreased IL-6 production”. Besides, the “Inflammatory response (IL-6 production) (in words)” value in the data set with THP-1 monocytes is “significantly decreased IL-6 production”.
Take `CC(=O)[C@H]1CC[C@H]2[C@@H]3CCC4=CC(=O)CC[C@]4(C)[C@H]3CC[C@]12C` [Progesterone]: the “Expression of cell surface markers involved in immune response (CD14, TLR4, and HLA-DR) (in words)” value in data set [6] is recorded as “decreased expression”. For the same compound, the IC50 came to 0.31 nM in data set [1] (Mus musculus, read-out: Contractile Force IC50) and 6.58 nM in data set [1] (Mus musculus, read-out: Contractile Frequency IC50). Besides, in data set [1] (maximal treatment dose), the “Spontaneous uterine contraction frequency compared to vehicle control (in words)” value is “not significantly decreased”. In addition, the “Contractile Frequency/10 min (% of baseline), Drug” value in data set [1] (maximal treatment dose) is given as 48% of baseline; in data set [3] (setting [8]) it was 141% of baseline; in [3] (setting [9]) it was 141 % of baseline. Also, the “Contractile Force (% of baseline), Drug” value in [1] (maximal treatment dose) is on record as 43.9% of baseline; in data set [1] (maximal treatment dose, listed as progesterone), 43.9 % of baseline; in data set [3] (setting [8]), 266.8% of baseline; in data set [3] (setting [9]) it was 266.8 % of baseline. In the data set on NF-κB pathway, the “Median similarity score (NF-κB migration into the nucleus) (in words)” value is listed as “did not affect the median similarity score”. Moreover, in data set [2], the IL-6 worked out at 100.3 pg/mL. Further, the “IL-6, % of positive control” value in data set [2] turned out to be 83%. The EC50 in data set [3] (Mus musculus, read-out: Contractile Force EC50) worked out at 9.76 nM; in data set [3] (Mus musculus, read-out: Contractile Frequency EC50), 11.3 nM. In addition, the “Oxytocin-induced contraction frequency compared to control (in words)” value in [3] (setting [8]) is on record as “decreased significantly”.
Consider `CC(=O)N1CCN(c2ccc(OCC3COC(Cn4ccnc4)(c4ccc(Cl)cc4Cl)O3)cc2)CC1` (stereo not drawn) [ketoconazole], for which the “Effect on CYP3A production of 16α-OHP and 6β-OHP” value with CYP3A [7] is “inhibited”.
